This note sets out measurements from ChEMBL document CHEMBL1255414, “Combination of V106I and V179D polymorphic mutations in human immunodeficiency virus type 1 reverse transcriptase confers resistance to efavirenz and nevirapine but not etravirine” (Antimicrob Agents Chemother, 2010).

In assay [1] the test system is Human immunodeficiency virus 1. In words: Antiviral activity against recombinant HIV1 harboring reverse transcriptase V106A mutant clone infected in MAGIC-5 cells using 5-bromo4-chloro-3-indolyl-beta-D-galactopyranoside staining based light microscopy. Format: functional, organism-based. Particulars: Human immunodeficiency virus 1, MAGIC-5.
Assay [2] has as its system Human immunodeficiency virus 1. In words: Antiviral activity against wild type HIV1 infected in MAGIC-5 cells using 5-bromo4-chloro-3-indolyl-beta-D-galactopyranoside staining based light microscopy. Type of assay: functional, organism-based. The following applies: Human immunodeficiency virus 1, MAGIC-5.
For assay [3], the system named is Human immunodeficiency virus 1. In words: Resistance index, ratio of EC50 for recombinant HIV1 harboring reverse transcriptase V106A/V179D mutant clone to EC50 for wild type HIV1. Type of assay: functional.
Assay [4] relates to Human immunodeficiency virus 1. In words: Antiviral activity against recombinant HIV1 harboring reverse transcriptase V106I mutant clone infected in MAGIC-5 cells using 5-bromo4-chloro-3-indolyl-beta-D-galactopyranoside staining based light microscopy. Format: functional, organism-based. Particulars: Human immunodeficiency virus 1, MAGIC-5.
Assay [5] deals with Human immunodeficiency virus 1. Put plainly: Resistance index, ratio of EC50 for recombinant HIV1 harboring reverse transcriptase V106A mutant clone to EC50 for wild type HIV1. Format: functional.
The subject of assay [6] is Human immunodeficiency virus 1. In words: Antiviral activity against recombinant HIV1 harboring reverse transcriptase V106A/V179D mutant clone infected in MAGIC-5 cells using 5-bromo4-chloro-3-indolyl-beta-D-galactopyranoside staining based light microscopy. Format: functional, organism-based. The following applies: Human immunodeficiency virus 1, MAGIC-5.
Assay [7] concerns Human immunodeficiency virus 1. In words: Antiviral activity against recombinant HIV1 harboring reverse transcriptase V179D mutant clone infected in MAGIC-5 cells using 5-bromo4-chloro-3-indolyl-beta-D-galactopyranoside staining based light microscopy. Format: functional, organism-based. The following applies: Human immunodeficiency virus 1, MAGIC-5.
For assay [8], the system named is Human immunodeficiency virus 1. Put plainly: Resistance index, ratio of EC50 for recombinant HIV1 harboring reverse transcriptase V106I mutant clone to EC50 for wild type HIV1. Format: functional.
The subject of assay [9] is Human immunodeficiency virus 1. Put plainly: Resistance index, ratio of EC50 for recombinant HIV1 harboring reverse transcriptase V179D mutant clone to EC50 for wild type HIV1. Type of assay: functional.
The subject of assay [10] is Human immunodeficiency virus 1. Put plainly: Resistance index, ratio of EC50 for recombinant HIV1 harboring reverse transcriptase V106I/V179D mutant clone to EC50 for wild type HIV1. Type of assay: functional.
In assay [11] the test system is Human immunodeficiency virus 1. In words: Antiviral activity against recombinant HIV1 harboring reverse transcriptase V106I/V179D mutant clone infected in MAGIC-5 cells using 5-bromo4-chloro-3-indolyl-beta-D-galactopyranoside staining based light microscopy. Format: functional, organism-based. The following applies: Human immunodeficiency virus 1, MAGIC-5.

What is called EC50 is the concentration needed to bring the measured effect to its halfway point. In the case of `Cc1cc(C#N)cc(C)c1Oc1nc(Nc2ccc(C#N)cc2)nc(N)c1Br` [ETRAVIRINE], the EC50 amounted to 0.5 nM in assay [1]; 1.2 nM in assay [2]; 1.5 nM in [4]; 1.4 nM in assay [6]; 1.9 nM in assay [7]; 2.4 nM in assay [11]. Also, the “Ratio EC50” value in [3] amounted to 1.2; in assay [5] it was 0.4; in [8] it was 1.3; in assay [9], 1.6; in [10], 2.
On to `Cc1ccnc2c1NC(=O)c1cccnc1N2C1CC1` [NEVIRAPINE], for which the EC50 in [1] stood at 3430 nM; in assay [2], 50 nM; in assay [4] it was 20 nM; in assay [6], 4530 nM; in [7], 130 nM; in assay [11], 370 nM. In addition, the “Ratio EC50” value in assay [3] was 91; in assay [5], 69; in assay [8], 0.4; in [9] it was 2.6; in assay [10] it was 7.
As for `O=C1Nc2ccc(Cl)cc2[C@@](C#CC2CC2)(C(F)(F)F)O1` [EFAVIRENZ], the EC50 was 3 nM in assay [1]; 3 nM in assay [4]; 13 nM in [6]; 4 nM in assay [7]; 29 nM in assay [11].
